Test results published in paper PMC6149664, “Synthesis and In Vitro Antimycobacterial Activity of Novel N-Arylpiperazines Containing an Ethane-1,2-diyl Connecting Chain” (Molecules : A Journal of Synthetic Chemistry and Natural …, 2017).
Where two headings read alike, the source gives them in different places.

How the values were obtained:
[1] = Isocratic RP-HPLC lipophilicity (k, log k, extrapolated log kw, slope S), MeOH/water mobile phases; assay type: physicochemical; details: for log kw (RP-HPLC): extrapolated to 100% water from log k vs ϕM (MeOH); for S, slope (RP-HPLC): slope of regression log k vs ϕM, alternative measure of lipophilicity
Text: Octadecyl-functionalized silica gel was used as a stationary phase in the RP-HPLC evaluation of 8a–h. A gradient of two solvents at different volume ratios modulated retention properties of a stationary phase. Liquid binary mixtures of methanol (MeOH) with water were employed as mobile phases in a present isocratic RP-HPLC method. The MeOH organic modifier was preferred because of making a reversed-phase chromatographic system closer to the octan-1-ol/water partitioning one in terms of sensitivity to H-bond donor properties of investigated compounds [39, 40]. The modifier was applied in different volume concentrations that varied from 60% to 85% (v/v).
The chromatographic HPLC-Diode Array Detection apparatus for the determination of capacity (retention) factor k (log k) values was the LC Agilent Infinity System (Agilent Technologies, Santa Clara, CA, USA) equipped with a Infinity 1260 gradient pump with a degasser, a 1260 HiPals automatic injector, a column thermostat 1290, a photo-diode array detector Infinity 1290 (all the equipments were obtained by Agilent Technologies) and personal computer with the Agilent ChemStation software (Agilent Technologies) for the registration of values and calibration procedures. The chromatographic column Eclipse plus RP C18, 150 × 4.6 mm i.d., a 5 μm particle size (Agilent Technologies), was used and thermostated at 35 °C.
The analyses were performed at pressure ranged from 7 MPa to 15 MPa. The detection wavelength was set to 260 nm, injection sample volume was 5 μL with a flow rate of 1.0 mL/min in all RP-HPLC analyses.
LC-MS Methanol (J. T. Baker Chemicals Co., Phillipsburg, NJ, USA) and HPLC-quality water (Sigma-Aldrich, Darmstadt, Germany) were used for a preparation of mobile phases. Water was firstly deionized and purified by the Millipore Simplicity 185 Ultrapure water purification system (Millipore, Billerica, MA, USA).
Methanol (MeOH)/water mobile phases with a various volume ratio of the organic modifier and water (60:40, 70:30, 80:20 and 85:15, respectively; v/v) were chosen. A concentration of all analyzed compounds 8a–h was c = 0.25 mg/mL. An queous solution of potassium nitrate (c = 0.1 M) was used for the determination of dead time t0 = 1.295 min. The capacity (retention) factor k values (Table 1) were calculated by Equation (6) as follows:k = (tr – t0)/t0(6) where the tr and t0 parameters were the retention times of a solute (tr) and unretained compound (potassium nitrate; t0), respectively. The observed retention (tr) and dead (t0) times were means of three independent determinations.
The log kw values, i.e., the logarithms of extrapolated capacity (retention) factors for 100% water in the isocratic RP-HPLC, were determined from intercepts of linear plots between the log k and ϕM (a volume fraction of an organic modifier in the isocratic elution RP-HPLC) according to Equation (7): log k = log kw – S × ϕM(7) where the S parameter represented the slope of a regression curve, which was related to the solvent strength of a pure organic solvent.

[2] = UV/Vis spectra of methanolic solutions (log ε); assay type: physicochemical; details: methanolic solution c = 3.0 × 10^−5 M; for log ε2(Ch-T): charge-transfer maximum λ2(Ch-T) = 238–240 nm; for log ε1: λ1 = 208–210 nm; for log ε3: λ3 = 274–276 nm
Text: Electronic properties of the inspected compounds 8a–h (Table 3) were characterized by logarithms of molar absorption coefficients (log ε) of their methanolic solutions (c = 3.0 × 10^−5 M) investigated in the UV/Vis region of the spectrum.
The UV/Vis spectra of methanolic solutions of the analyzed compounds 8a–h (c = 3.0 × 10^−5 M) were estimated on the 8452A Diode Array spectrophotometer HP-8452A (Hewlett Packard, Palo Alto, CA, USA). Methanol for UV-spectroscopy (Merck) was used for the preparation of these solutions.
Results of the UV/Vis analyses were collected and stored digitally using the ChemStation controller software (Agilent Technologies, Waldbronn, Germany). The HP-8452A apparatus measured a complete range of a spectrum from 190 nm to 820 nm.
The log ε values characterizing methanolic solutions of the analyzed compounds 8a–h (c = 3.0 × 10^−5 M) were estimated at λ1 = 208–210 nm, λ2(Ch-T) = 238–240 nm and λ3 = 274–276 nm (Table 3), respectively, in a near ultraviolet (quarz) region of the electromagnetic spectrum between 200 and 400 nm. The log ε values for the observed absorption maxima were calculated according to the Lambert-Beer´s law discussed in [47], for example, and expressed by Equation (8):A = ε × c × l(8) where the A parameter represented the absorbance of a solution, the descriptor ε was a molar absorption coefficient (in the L/mol/cm units) and l was the path length (in the cm units).

[3] = system: M. tuberculosis CNCTC My 331/88 (identical with H37Rv and ATCC 2794); assay: In vitro antimycobacterial MIC, dilution-micromethod in Šula semisynthetic medium; assay type: cell-based; details: Mycobacterium tuberculosis
[4] = system: M. kansasii 6 509/96 clinical isolate; assay: as above; assay type: cell-based; details: Mycobacterium kansasii, read-out: MIC, MK 6 509/96
M. kansasii CIT11/06 = assay: In vitro antimycobacterial MIC (IC90), alamarBlue 96-well assay in Middlebrook broth; assay type: cell-based, Mycobacterium kansasii; details: Mycobacterium kansasii, CIT11/06, 168 h, 7 days incubation, read-out: MIC, MK CIT11/06
[5] = system: M. avium subsp. paratuberculosis CIT03; assay: microbe, parasite or virus in culture; assay type: cell-based; details: Mycobacterium avium, 168 h; 7 days incubation, alamarBlue; MIC = IC90; read-out: MIC, MAP CIT03
[6] = system: M. avium intracellulare ATCC 13950; assay: In vitro antimycobacterial MIC (IC90), alamarBlue 96-well assay in Middlebrook broth; assay type: cell-based, Mycobacterium avium intracellulare; details: Mycobacterium avium, ATCC13950, 168 h, 7 days incubation, read-out: MIC, MAI ATCC 13950
[7] = system: M. avium hominissuis CIT10/08; assay: as above; assay type: cell-based, Mycobacterium avium hominissuis; details: Mycobacterium avium, 168 h, 7 days incubation, read-out: MIC, MAH CIT10/08
[8] = mobile phase MeOH/water 60:40 (v/v)
[9] = mobile phase MeOH/water 70:30 (v/v)
[10] = mobile phase MeOH/water 80:20 (v/v)
[11] = mobile phase MeOH/water 85:15 (v/v)
[12] = 336 h, 14 d cultivation, read-out: MIC, MT My 331/88
[13] = 504 h, 21 d cultivation, read-out: MIC, MT My 331/88
[14] = 336 h, 14-d/21-d cultivation, read-out: MIC against M. tuberculosis CNCTC My 331/88

| Structure (SMILES) | capacity factor k (RP-HPLC) ([1]; MeOH/water 60:40 (v/v)) | capacity factor k (RP-HPLC) ([1]; MeOH/water 70:30 (v/v)) | capacity factor k (RP-HPLC) ([1]; MeOH/water 80:20 (v/v)) | capacity factor k (RP-HPLC) ([1]; MeOH/water 85:15 (v/v)) | log kw (RP-HPLC) [1] | log k (RP-HPLC) [1, 8] | log k (RP-HPLC) [1, 9] | log k (RP-HPLC) [1, 10] | log k (RP-HPLC) [1, 11] | S, slope (RP-HPLC) [1] | log ε2(Ch-T) [2] | log ε1 [2] | log ε3 [2] | MIC [3, 12] [µM] | MIC [3, 13] [µM] | MIC ([4]; 168 h, 7 d cultivation) [µM] | MIC ([4]; 336 h, 14 d cultivation) [µM] | MIC ([4]; 504 h, 21 d cultivation) [µM] | MIC (M. kansasii CIT11/06) [µM] | MIC [5] [µM] | further results |
| --- | --- | --- | --- | --- | --- | --- | --- | --- | --- | --- | --- | --- | --- | --- | --- | --- | --- | --- | --- | --- | --- |
| CCOC(=O)Nc1cccc(C(O)CN2CCN(c3ccccc3F)CC2)c1.Cl (stereo not shown) [8b, 1-(2-{3-[(Ethoxycarbonyl)amino]phenyl}-2-hydroxyethyl)-4-(2-fluorophenyl)piperazin-1-ium chloride] | 4.951 | 2.778 | 1.245 | 0.879 | 2.546 | 0.695 | 0.444 | 0.095 | −0.056 | 3.0529 | 4.33 | 4.31 | 3.40 | 125 | 125 | 62.5 | 250 | 250 | 295 | > 590 | MIC [6]: > 590 µM; MIC [7]: > 590 µM |
| COC(=O)Nc1ccc(C(O)CN2CCN(c3ccccc3F)CC2)cc1.Cl (stereo not shown) [8e, 1-(2-Hydroxy-2-{4-[(methoxycarbonyl)amino]phenyl}ethyl)-4-(2-fluorophenyl)piperazin-1-ium chloride] | 3.098 | 1.456 | 0.822 | 0.637 | 2.113 | 0.491 | 0.163 | −0.085 | −0.196 | 2.7386 | 4.67 | 4.61 | 3.67 | 125 | 125 | 125 | 500 | 500 | > 610 | > 610 | MIC [3, 14]: 125 µM; MIC [6]: > 610 µM; MIC [7]: > 610 µM |
| CCCCOC(=O)Nc1cccc(C(O)CN2CCN(c3ccccc3F)CC2)c1.Cl (stereo not shown) [8d, 1-(2-{3-[(Butoxycarbonyl)amino]phenyl}-2-hydroxyethyl)-4-(2-fluorophenyl)piperazin-1-ium chloride] | 6.738 | 5.039 | 1.769 | 1.185 | 2.796 | 0.829 | 0.702 | 0.245 | 0.074 | 3.1641 | 4.32 | 4.31 | 3.49 | 32 | 32 | 16 | 32 | 62.5 | > 553 | > 53 | MIC [3, 14]: 32 µM; MIC [6]: > 553 µM; MIC [7]: > 553 µM |
| CCCCOC(=O)Nc1ccc(C(O)CN2CCN(c3ccccc3F)CC2)cc1.Cl (stereo not shown) [8h, 1-(2-{4-[(Butoxycarbonyl)amino]phenyl}-2-hydroxyethyl)-4-(2-fluorophenyl)piperazin-1-ium chloride] | 7.598 | 4.627 | 1.736 | 1.173 | 2.930 | 0.881 | 0.665 | 0.240 | 0.069 | 3.3441 | 4.42 | 4.34 | 3.42 | 8 | 8 | 125 | > 250 | > 250 | > 553 | > 553 | MIC [3, 14]: 8 µM; MIC [6]: > 553 µM; MIC [7]: > 553 µM |
| CCCOC(=O)Nc1cccc(C(O)CN2CCN(c3ccccc3F)CC2)c1.Cl (stereo not shown) [8c, 1-(2-Hydroxy-2-{3-[(propoxycarbonyl)amino]phenyl}ethyl)-4-(2-fluorophenyl)piperazin-1-ium chloride] | 5.898 | 3.561 | 1.466 | 1.023 | 2.679 | 0.771 | 0.552 | 0.166 | 0.010 | 3.1244 | 4.37 | 4.30 | 3.42 | 62.5 | 62.5 | 32 | 125 | 125 | > 571 | > 571 | MIC [6]: > 571 µM; MIC [7]: > 571 µM |
| COC(=O)Nc1cccc(C(O)CN2CCN(c3ccccc3F)CC2)c1.Cl (stereo not shown) [8a, 1-(2-Hydroxy-2-{3-[(methoxycarbonyl)amino]phenyl}ethyl)-4-(2-fluorophenyl)piperazin-1-ium chloride] | 4.091 | 1.770 | 0.925 | 0.699 | 2.430 | 0.612 | 0.248 | −0.034 | −0.156 | 3.0678 | 4.30 | 4.30 | 3.45 | 250 | 250 | 125 | 500 | 500 | > 610 | > 610 | MIC [3, 14]: 250 µM; MIC [6]: > 610 µM; MIC [7]: > 610 µM |
